Experimental data: patent publication US6855669B2, “Use of α,β unsaturated aliphatic aldehydes and ketones to inhibit potato tuber sprouting” (Washington State University Research Foundation, priority 2000, dated 2005)
Marks after values point to notes of the source that are not given here.

Tests used:
[1] = tested on: Russet Burbank seed-tubers; assay: Example 3: etiolated sprout development and tuber quality after 28 days; assay type: in vivo, Solanum tuberosum; conditions: 0.96 mmol/kg, 12 hours at 23° C.; 28 days at 15° C.
Description: Methods: Eleven-month-old Russet Burbank seed-tubers were taken from a 4° C. storage area and treated with 250 μL of trans-2-hexenal in a 9.2 liter (L) glass desiccator (0.96 mmol/kg potato tubers) for 12 hours at 23° C. The trans-2-hexenal was pipetted onto Whatman #1 filter paper in a glass petri dish (5.5 cm diameter) inside the desiccator. Control tubers were enclosed in a desiccator without trans-2-hexenal. Following treatment, the tubers were enclosed in 1 L […] chambers (3 tubers per chamber) that were placed at 15° C. A continuous airflow (approximately 80 mL/min; 21% O2, 79% N2) was established around the tubers through inlet and outlet ports in the lid of each chamber. Respiration rates were determined at four hour intervals over a 28 day storage period by quantifying CO2 in the outflow from each chamber with a LI-COR model 6262 infra-red gas analyzer (LI-COR Inc., Lincoln Nebr.). The experiment was set up in a randomized complete block design (5 replicates) with two treatments (control and trans-2-hexenal-treated). The effect of trans-2-hexenal exposure on the development of etiolated sprouts was assessed 28 days after removal from the 4° C. storage.

[2] = tested on: Russet Burbank and Ranger Russet seed-tubers; assay: Example 5: sprout inhibition by C5 to C9 trans-2 aldehydes over prolonged storage (17 weeks); assay type: in vivo, Solanum tuberosum; conditions: 0.5, 0.75 and 1.0 mmol/kg tuber, 24 hours; 17 weeks at 8° C., 95% RH
Description: (46° F.), 95% relative humidity (RH), for 17 weeks. As described more fully in Example 5, four-month-old tubers (previously stored at 4° C.) were treated (for 24 h) with different concentrations of the aldehydes in mid January. The treated tubers were then stored in the dark for 120 days (17 weeks).
Methods: Four-month-old Russet Burbank and Ranger Russet seed-tubers were taken from a 4° C. storage area and treated (Jan. 10, 2001) separately with 0, 0.5, 0.75 and 1.0 mmol/kg tuber of trans-2-pentenal, trans-2-hexenal, trans-2-heptenal, trans-2-octenal, and trans-2-nonenal in 3.9 L glass jars. The volume of inhibitor required to achieve the above rates was pipetted onto filter paper discs inside the lids of each jar. The concentration of inhibitors in the headspace of the jars was equal at 0.16 mmol/L. The tubers were enclosed in the jars and thus exposed to inhibitor vapor for 24 hours at 23° C. Control tubers were enclosed in a glass jar without any aldehyde. Following treatment, tubers were removed from the jars and placed at 8° C. (46° F.) (95% relative humidity) in the dark to sprout for 120 days (17 weeks). The experiment was set up in a randomized complete block design (5 replicates) with chemicals and concentrations arranged factorially. Effects of the aliphatic aldehydes on the development of etiolated sprouts were documented photographically and quantitatively (sprout number and fresh weight) after 120 days of storage.

Compound: CCC/C=C/C=O [trans-2-hexenal]
- Average Sprout Length [1]: 0** cm/tuber
- Sprout fresh wt [1]: 0** g/tuber
- Tuber external pit rating [1]: 2.2**
- Tuber fresh wt loss [1]: 11.8** g/tuber
- inhibition of sprout development (in words) [2]: inhibited sprouting in a concentration-dependent manner
